Assay results: patent publication US20250041367A1, “BACTERIOPHAGES AND USE THEREOF FOR THE TREATMENT OR PREVENTION OF INFECTION CAUSED BY E. COLI” (Purdue Research Foundation, priority 2023, published 2025)

Tests used:
[1] = tested on: all other bacteria in the cecal samples; assay: Chicken cecal samples on sorbitol-MacConkey agar supplemented with antibiotics; type: cell-based; conditions: streptomycin 64 ug/mL and gentamycin 32 ug/mL, overnight 37° C.
Experimental: (§1) As non-pathogenic E. coli are among the bacteria normally present in chickens' gastrointestinal tracts, potential antibiotic resistance selection markers in challenge APEC strains were identified by conducting antibiograms of each APEC strain in the library of APEC strains using a previously described micro-broth dilution method. 90 μL of Brain Heart Infusion broth was aliquoted into each well of 96-well plates. Antibiotics (specifically, kanamycin, gentamycin, neomycin, nalidixic acid, streptomycin, and ampicillin) were added to wells in order to establish an antibiotic concentration gradient spanning across each antibiotic's minimum inhibitory concentration (MIC) as reported by NARMS. […] Following incubation, the lowest concentration of each antibiotic that prevented visible bacterial growth was recorded as the MIC for that antibiotic. MICs were confirmed for each APEC strain by plating each strain on sorbitol-MacConkey agar supplemented with antibiotics at the determined MICs and incubating plates overnight at 37° C. The challenge APEC strain was then selected by incubating samples from chicken ceca on sorbitol-MacConkey agar supplemented with antibiotics at the determined MICs and incubating these samples overnight at 37° C. […]

APEC strain O2:H4 = assay: Antibiogram by micro-broth dilution (MIC); type: cell-based, Escherichia coli; conditions: confirmed on sorbitol-MacConkey agar
Experimental: as §1

APEC serotype O2:H4 = assay: Lytic capacity of the six-phage treatment compared with antibiotics (OD600); type: cell-based, Escherichia coli; conditions: APEC O2:H4, antibiotic at its minimum inhibitory concentration (NARMS), 1-4 hours
Experimental: The six APEC strains were individually inoculated into LB broth and incubated at 37° C. until they reached log-phase growth. Phages were added to the log-phase culture of their APEC host at an MOI of 10, and subsequent bacterial concentrations were determined by measuring the absorbance (OD600) of the culture at 1, 2, 3, and 4 hours post-phage application. One flask containing only bacterial culture was included as a negative control. Additional flasks containing both bacterial cultures and antibiotics (specifically, gentamycin sulfate, kanamycin sulfate, nalidixic acid, or chloramphenicol) at their respective minimum inhibitory concentrations (National Antibiotic Resistance Monitoring System (NARMS) 2019, antibiotics tested by NARMS) were included as positive controls. These lytic capacity experiments were conducted in triplicate for each of the phage types and their respective host APEC strains.

Compound | growth of all other bacteria in the cecal samples [1] | antibiotic concentration at which APEC strain O2:H4 is resistant (APEC strain O2:H4) [µg/mL] | OD600 readings of antibiotic-treated APEC cultures over time (APEC serotype O2:H4)
[H]/N=C(/N)N[C@H]1[C@H](O)[C@@H](O)[C@H](O[C@@H]2O[C@@H](C)[C@](O)(C=O)[C@H]2O[C@@H]2O[C@@H](CO)[C@H](O)[C@@H](O)[C@@H]2NC)[C@@H](N/C(N)=N\[H])[C@@H]1O [streptomycin] | prohibit the growth | 64 | 
gentamycin | prohibit the growth | 32 | increased over time
